Source: patent publication US12201635B2, “Multi-target kinase inhibitor, pharmaceutical composition, and preparation method for multi-target kinase inhibitor and use thereof” (GUANGZHOU LIUSHUN BIOTECHNOLOGY CO., LTD., priority 2019, dated 2025)

Legend:
[1] = target: RET (Homo sapiens, UniProt P07949); assay: Z'-LYTE kinase inhibition assay, RET; format: biochemical
Experimental: (§1) 1. The compounds to be detected were accurately weighed and added into DMSO to form stock solutions, which were then diluted to desired concentrations with a buffer to give solutions of the compounds to be detected.
(§2) 2. An RET or VEGFR3 or PDGFRA kinase solution, corresponding substrate solutions of Z′-LYTE, a buffer or a compound to be detected and ATP were added into a 384 reaction vessel, and reacted at room temperature for 1 h.
(§3) 3. To each well was added a fluorescence enhancer, followed by incubation at room temperature for 1 h.
(§4) 4. Data were read separately using a fluorescence analyzer.
(§5) 1. The relative inhibitory rate for each well was calculated according to a formula.
(§6) 2. Active samples were diluted and tested for relative inhibitory rates, and the inhibitory rates IC50 were calculated by plotting in the software Xlfit.

[2] = target: PDGFRA (Homo sapiens, UniProt P16234); assay: Z'-LYTE kinase inhibition assay, PDGFRA; format: biochemical
Experimental: as §1, §2, §3, §4, §5, §6

[3] = test system: KYSE 410 esophageal cancer; assay: In vivo anti-tumor activity, nude mouse tumor model of KYSE 410 esophageal cancer; conditions: KYSE 410 esophageal cancer mice
Excerpt: (§7) In this example, the in vivo anti-tumor activity (liver cancer/esophageal cancer) of the multi-target kinase inhibitor [Compound (I-1)] was investigated according to the requirements in Guidelines for Pharmacodynamics of Anti-tumor Drugs. The experimental procedures and results are as follows:
(§8) Tumor models of nude mice were established using […] heptoma cells and KYSE 410 esophageal cancer cells that meet modeling conditions. The modeled mice were divided into 5 groups: a model group, a Compound (I-1) 5 mg/kg group, a Compound (I-1) 10 mg/kg group, a Compound (I-1) 20 mg/kg group, and a positive control group (sorafenib or cabozantinib). Administration was performed from the day of grouping that was counted as day 1 and for 21 consecutive days, and the 21st day was counted as day21. Tumor volumes were measured twice a week during the period of administration for statistical test.

[4] = test system: SMMC-7721 hepatoma; assay: In vivo anti-tumor activity, nude mouse tumor model of SMMC-7721 liver cancer; conditions: SMMC-7721 liver cancer mice
Excerpt: as §7, §8

[5] = target: VEGFR3 (Homo sapiens, UniProt P35916); assay: Z'-LYTE kinase inhibition assay, VEGFR3; format: biochemical
Experimental: as §1, §2, §3, §4, §5, §6

[6] = 5, 10 and 20 mg/kg, 21 consecutive days, day21 ANOVA P<0.0001
[7] = 10 and 20 mg/kg, positive control sorafenib or cabozantinib

Chain of RET (P07949 29-1114): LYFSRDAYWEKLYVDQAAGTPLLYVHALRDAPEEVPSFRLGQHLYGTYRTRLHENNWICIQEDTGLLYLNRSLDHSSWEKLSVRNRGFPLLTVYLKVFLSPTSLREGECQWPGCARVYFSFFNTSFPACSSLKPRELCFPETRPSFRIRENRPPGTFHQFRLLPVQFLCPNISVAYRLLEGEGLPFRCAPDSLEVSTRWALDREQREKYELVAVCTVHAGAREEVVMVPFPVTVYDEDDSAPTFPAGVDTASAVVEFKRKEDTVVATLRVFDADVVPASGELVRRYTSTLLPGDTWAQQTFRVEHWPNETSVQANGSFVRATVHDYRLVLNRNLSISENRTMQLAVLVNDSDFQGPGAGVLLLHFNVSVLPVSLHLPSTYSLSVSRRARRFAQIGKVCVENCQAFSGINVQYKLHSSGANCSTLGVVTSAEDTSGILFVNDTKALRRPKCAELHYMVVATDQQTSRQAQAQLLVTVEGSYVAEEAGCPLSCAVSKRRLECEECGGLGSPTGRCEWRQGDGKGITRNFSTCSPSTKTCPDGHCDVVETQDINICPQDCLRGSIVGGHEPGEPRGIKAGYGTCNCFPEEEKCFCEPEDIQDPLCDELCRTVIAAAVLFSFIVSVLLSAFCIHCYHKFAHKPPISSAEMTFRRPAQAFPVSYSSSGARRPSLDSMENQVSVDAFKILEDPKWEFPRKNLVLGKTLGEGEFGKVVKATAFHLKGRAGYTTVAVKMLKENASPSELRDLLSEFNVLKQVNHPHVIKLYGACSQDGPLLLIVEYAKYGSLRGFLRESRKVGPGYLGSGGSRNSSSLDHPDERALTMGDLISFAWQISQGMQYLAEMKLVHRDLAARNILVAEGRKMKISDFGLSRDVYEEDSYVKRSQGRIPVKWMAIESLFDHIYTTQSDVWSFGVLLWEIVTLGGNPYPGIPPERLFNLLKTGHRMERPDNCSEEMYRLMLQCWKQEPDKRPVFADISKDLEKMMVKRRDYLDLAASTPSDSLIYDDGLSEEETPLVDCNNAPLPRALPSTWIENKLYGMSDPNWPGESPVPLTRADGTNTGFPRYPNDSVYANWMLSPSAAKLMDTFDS
Chain of PDGFRA (P16234 24-1089): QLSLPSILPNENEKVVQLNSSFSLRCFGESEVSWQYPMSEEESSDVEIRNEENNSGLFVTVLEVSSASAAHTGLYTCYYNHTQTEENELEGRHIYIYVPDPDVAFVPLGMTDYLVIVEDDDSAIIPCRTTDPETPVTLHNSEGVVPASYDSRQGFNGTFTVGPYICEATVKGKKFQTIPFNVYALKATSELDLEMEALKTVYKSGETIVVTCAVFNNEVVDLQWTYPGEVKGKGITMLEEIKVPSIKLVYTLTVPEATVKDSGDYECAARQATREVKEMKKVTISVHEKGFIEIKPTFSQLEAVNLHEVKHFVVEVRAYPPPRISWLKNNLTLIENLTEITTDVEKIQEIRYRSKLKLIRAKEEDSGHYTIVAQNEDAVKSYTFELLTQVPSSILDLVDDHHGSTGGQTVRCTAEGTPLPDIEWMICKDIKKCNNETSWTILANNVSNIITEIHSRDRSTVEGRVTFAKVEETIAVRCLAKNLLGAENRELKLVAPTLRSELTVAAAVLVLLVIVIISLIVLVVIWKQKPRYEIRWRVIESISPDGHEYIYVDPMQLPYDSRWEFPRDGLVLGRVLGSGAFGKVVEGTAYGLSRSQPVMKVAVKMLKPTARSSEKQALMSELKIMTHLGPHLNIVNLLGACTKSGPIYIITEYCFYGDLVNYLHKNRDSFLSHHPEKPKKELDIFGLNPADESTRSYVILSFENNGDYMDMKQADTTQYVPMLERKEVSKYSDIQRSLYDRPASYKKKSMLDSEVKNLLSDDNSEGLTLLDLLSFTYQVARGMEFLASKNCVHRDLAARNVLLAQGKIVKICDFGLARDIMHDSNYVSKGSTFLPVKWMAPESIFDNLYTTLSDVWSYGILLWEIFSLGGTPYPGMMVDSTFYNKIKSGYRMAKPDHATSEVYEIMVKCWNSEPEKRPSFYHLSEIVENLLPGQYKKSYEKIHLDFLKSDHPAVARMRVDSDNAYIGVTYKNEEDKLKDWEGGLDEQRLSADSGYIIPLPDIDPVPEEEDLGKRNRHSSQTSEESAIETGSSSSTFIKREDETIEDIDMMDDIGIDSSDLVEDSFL
Chain of VEGFR3 (P35916 25-1363): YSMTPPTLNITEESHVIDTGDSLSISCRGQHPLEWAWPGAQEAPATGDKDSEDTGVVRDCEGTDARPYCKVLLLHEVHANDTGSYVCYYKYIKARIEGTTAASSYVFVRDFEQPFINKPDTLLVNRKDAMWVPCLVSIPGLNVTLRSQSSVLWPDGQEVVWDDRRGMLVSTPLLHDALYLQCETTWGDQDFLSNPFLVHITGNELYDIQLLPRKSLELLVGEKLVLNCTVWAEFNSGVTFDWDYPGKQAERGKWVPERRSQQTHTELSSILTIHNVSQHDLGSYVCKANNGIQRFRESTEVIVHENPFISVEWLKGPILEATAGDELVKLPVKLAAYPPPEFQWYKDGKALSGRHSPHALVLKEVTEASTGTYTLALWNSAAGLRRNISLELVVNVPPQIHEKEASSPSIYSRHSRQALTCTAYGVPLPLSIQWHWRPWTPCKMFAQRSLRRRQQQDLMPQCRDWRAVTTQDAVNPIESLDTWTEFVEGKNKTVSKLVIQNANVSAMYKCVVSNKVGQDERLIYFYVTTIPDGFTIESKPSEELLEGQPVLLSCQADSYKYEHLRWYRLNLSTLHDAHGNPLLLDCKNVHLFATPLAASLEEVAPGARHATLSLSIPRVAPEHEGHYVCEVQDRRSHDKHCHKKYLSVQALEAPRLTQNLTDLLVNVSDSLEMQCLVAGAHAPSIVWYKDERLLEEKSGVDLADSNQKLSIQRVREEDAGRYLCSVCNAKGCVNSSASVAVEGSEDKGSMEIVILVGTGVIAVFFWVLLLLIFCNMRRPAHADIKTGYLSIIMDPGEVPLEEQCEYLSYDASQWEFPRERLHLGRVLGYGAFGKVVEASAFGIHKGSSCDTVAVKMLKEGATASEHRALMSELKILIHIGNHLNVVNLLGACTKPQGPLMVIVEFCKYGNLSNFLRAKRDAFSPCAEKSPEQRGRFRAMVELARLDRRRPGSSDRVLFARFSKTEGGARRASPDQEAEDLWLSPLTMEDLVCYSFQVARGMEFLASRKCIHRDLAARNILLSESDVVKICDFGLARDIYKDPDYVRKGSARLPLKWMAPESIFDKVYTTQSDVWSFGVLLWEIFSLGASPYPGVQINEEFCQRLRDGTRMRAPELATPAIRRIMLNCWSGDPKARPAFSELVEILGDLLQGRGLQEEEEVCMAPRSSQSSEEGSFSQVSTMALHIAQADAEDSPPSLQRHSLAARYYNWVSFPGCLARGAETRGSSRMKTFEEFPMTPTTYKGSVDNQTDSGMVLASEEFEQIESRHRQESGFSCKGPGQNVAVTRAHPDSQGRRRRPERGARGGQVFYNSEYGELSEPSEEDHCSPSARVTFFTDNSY

Structure (SMILES)	IC50 [1]	IC50 [2]	Tumor volume compared with the model group [3, 6]	Tumor volume compared with the positive control group [3, 7]	Tumor volume compared with the model group [4, 6]	Tumor volume compared with the positive control group [4, 7]	IC50 [5]
COc1cc2ncnc(Oc3ccc(NC(=O)NC4CC4)cc3)c2cc1OC [Compound I-1]	12 nM	60 nM	lower tumor volumes	lower tumor volumes	lower tumor volumes	lower tumor volumes	30 nM
COc1cc2ncnc(Oc3ccc(NC(=O)NC4CCCC4)cc3)c2cc1OC [Compound I-3]	85 nM	62 nM					9 nM
COc1cc2ncnc(Oc3ccc(NC(=O)N4CCCC4)cc3)c2cc1OC [Compound I-5]	102 nM	124 nM					213 nM
C=CNC(=O)Nc1ccc(Oc2ncnc3cc(OC)c(OC)cc23)cc1 [Compound I-4]	26 nM	52 nM					65 nM
COc1cc2ncnc(Oc3ccc(NC(=O)N4CCCCC4)cc3)c2cc1OC [Compound I-6]	251 nM	632 nM					328 nM
COc1cc2ncnc(Oc3ccc(NC(=O)NC4CCC4)cc3)c2cc1OC [Compound I-2]	37 nM	308 nM					16 nM
